Measurements from ChEMBL document CHEMBL1201862, “PubChem BioAssay data set” (2004).
The source made the active and inactive calls.

How the values were obtained:
[1] = T. cruzi growth inhibition in host cells, dose response, cell-based, plate reader, dry powder, set 2 (AID 652275); type: functional
[2] = Late stage assay provider results from the probe development effort to identify inhibitors of the Plasmodium falciparum M17 Leucine Aminopeptidase (M17LAP): radiolabel-based cell-based dose response assay to identify compounds that inhibit P. falciparum growth in RBCs Set 2.; type: functional
[3] = biological target: T1, RNA-binding protein pos-1 (Caenorhabditis elegans, UniProt G5EF15); assay: inhibitors of POS-1/mex-3 RNA binding, dose response, biochemical, fluorescence polarization (AID 1964);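 note: purified POS-1 fused to maltose binding protein made in E. coli; potency of compounds blocking POS-1 binding to fluorescent RNA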
T1 sequence (G5EF15 whole entry): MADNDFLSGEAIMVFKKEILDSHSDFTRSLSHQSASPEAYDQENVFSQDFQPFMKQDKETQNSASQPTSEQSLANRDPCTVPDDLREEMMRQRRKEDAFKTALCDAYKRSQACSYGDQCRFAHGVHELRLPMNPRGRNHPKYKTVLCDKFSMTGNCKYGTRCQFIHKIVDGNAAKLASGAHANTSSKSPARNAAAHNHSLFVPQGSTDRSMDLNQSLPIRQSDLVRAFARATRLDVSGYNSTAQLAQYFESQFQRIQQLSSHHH

[4] = biological target: T2, Zinc finger protein mex-5 (Caenorhabditis elegans, UniProt Q9XUB2); assay: MEX-5/TCR-2 RNA interaction inhibitors, dose response, biochemical, C. elegans, fluorescence polarization (AID 1960)
T2 sequence (Q9XUB2 whole entry): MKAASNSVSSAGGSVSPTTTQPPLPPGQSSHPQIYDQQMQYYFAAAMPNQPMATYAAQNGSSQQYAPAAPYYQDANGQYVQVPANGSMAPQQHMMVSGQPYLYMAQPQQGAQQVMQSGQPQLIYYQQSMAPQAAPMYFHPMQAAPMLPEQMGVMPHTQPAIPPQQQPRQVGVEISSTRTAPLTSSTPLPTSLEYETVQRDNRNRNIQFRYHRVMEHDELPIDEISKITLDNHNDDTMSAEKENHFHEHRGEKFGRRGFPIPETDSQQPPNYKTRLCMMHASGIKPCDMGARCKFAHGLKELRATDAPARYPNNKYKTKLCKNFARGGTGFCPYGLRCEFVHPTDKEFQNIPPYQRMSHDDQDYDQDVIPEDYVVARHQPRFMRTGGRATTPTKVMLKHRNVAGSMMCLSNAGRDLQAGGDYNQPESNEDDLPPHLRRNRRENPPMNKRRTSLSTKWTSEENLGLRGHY

[5] = biological target: T3, Heat shock factor protein 1 (Mus musculus, UniProt P38532); assay: inhibition of MG132-induced HSE-luciferase signal, confirmation, cell-based, NIH3T3, luminescence, dose retest (AID 2382); type: functional;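 note: NIH3T3 fibroblasts with HSF1-driven luciferase reporter stressed by proteasome inhibitor MG132; luminescence from HSF1-driven luciferase expression after 8 hours of MG132 stress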
T3 sequence (P38532 whole entry): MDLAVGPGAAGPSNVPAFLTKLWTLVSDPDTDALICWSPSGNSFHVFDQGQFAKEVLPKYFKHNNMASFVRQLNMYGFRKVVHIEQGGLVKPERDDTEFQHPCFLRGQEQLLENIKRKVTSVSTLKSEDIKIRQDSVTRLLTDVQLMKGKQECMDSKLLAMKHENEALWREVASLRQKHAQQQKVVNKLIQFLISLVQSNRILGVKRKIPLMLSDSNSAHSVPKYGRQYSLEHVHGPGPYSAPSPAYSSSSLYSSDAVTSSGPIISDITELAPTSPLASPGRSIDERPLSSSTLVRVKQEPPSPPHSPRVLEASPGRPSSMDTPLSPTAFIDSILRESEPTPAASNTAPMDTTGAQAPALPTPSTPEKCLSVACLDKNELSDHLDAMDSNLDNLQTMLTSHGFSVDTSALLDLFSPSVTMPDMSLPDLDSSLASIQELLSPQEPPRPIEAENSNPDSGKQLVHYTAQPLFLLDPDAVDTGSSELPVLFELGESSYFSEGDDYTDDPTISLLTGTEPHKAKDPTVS

[6] = biological target: G-protein coupled receptor 55 (Homo sapiens, UniProt Q9Y2T6); assay: GPR55 agonists via beta-arrestin recruitment, primary screen, imaging, U2OS cells, beta-arrestin-GFP redistribution (AID 1961); type: functional
[7] = Luminescence Cell-Based Dose Retest to Confirm Inhibitors of Cancer Stem Cells. [Related pubchem assays (depositor defined):AID2717, AID2721]; type: functional; settings: Homo sapiens
[8] = miR-122 activators in hepatoma reporter cells, dose response, cell-based, Huh7 psiCHECK-miR122, Renilla luciferase, cherry-picked (AID 651956); type: functional;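 note: huh7 hepatoma cells stably carrying a psiCHECK-2 miR-122 sensor plasmid; renilla luciferase signal reporting endogenous miR-122 activity after 48 h compound exposure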
[9] = HEK293T cytotoxicity, dose response, cytotoxicity control for miR-122 modulator project, cell-based, inhibitor set, cherry-pick, set 2 (AID 720697); type: functional
[10] = HEK293T cytotoxicity, dose response, cytotoxicity control for miR-122 modulator project, cell-based, activator set, cherry-pick (AID 720690); type: functional;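 note: HEK293T human cells scored for general mammalian cytotoxicity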
[11] = biological target: T4, RNA-editing ligase 1, mitochondrial (Trypanosoma brucei brucei, UniProt P86926); assay: TbREL1 ligase inhibitors, dose response, biochemical, fluorescence, Trypanosoma brucei (AID 1117295); type: functional
T4 sequence (P86926 whole entry): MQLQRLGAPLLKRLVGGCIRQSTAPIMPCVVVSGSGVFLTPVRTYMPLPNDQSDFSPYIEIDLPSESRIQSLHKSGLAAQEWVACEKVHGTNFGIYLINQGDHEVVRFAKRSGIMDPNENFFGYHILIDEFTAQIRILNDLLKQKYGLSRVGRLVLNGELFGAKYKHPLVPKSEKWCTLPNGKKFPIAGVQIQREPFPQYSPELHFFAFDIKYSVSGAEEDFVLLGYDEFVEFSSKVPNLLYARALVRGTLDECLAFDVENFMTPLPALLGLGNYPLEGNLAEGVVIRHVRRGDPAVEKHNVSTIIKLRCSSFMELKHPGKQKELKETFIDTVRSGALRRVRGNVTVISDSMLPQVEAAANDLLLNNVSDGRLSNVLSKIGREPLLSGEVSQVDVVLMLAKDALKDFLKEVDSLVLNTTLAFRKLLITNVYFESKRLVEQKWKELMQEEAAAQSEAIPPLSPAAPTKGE

[12] = HepG2 cell cytotoxicity, dose response, cytotoxicity control, ATP luminescence, cherry-pick, set 6 (AID 1053125); type: functional, cell-based
cells [13] = settings: A549
cells [14] = settings: HEK293
[15] = biological target: T5, Methionyl-tRNA synthetase, putative (Trypanosoma brucei brucei, UniProt Q38C91); type: functional, Trypanosoma brucei brucei strain 927/4 GUTat10.1
T5 sequence (Q38C91 whole entry): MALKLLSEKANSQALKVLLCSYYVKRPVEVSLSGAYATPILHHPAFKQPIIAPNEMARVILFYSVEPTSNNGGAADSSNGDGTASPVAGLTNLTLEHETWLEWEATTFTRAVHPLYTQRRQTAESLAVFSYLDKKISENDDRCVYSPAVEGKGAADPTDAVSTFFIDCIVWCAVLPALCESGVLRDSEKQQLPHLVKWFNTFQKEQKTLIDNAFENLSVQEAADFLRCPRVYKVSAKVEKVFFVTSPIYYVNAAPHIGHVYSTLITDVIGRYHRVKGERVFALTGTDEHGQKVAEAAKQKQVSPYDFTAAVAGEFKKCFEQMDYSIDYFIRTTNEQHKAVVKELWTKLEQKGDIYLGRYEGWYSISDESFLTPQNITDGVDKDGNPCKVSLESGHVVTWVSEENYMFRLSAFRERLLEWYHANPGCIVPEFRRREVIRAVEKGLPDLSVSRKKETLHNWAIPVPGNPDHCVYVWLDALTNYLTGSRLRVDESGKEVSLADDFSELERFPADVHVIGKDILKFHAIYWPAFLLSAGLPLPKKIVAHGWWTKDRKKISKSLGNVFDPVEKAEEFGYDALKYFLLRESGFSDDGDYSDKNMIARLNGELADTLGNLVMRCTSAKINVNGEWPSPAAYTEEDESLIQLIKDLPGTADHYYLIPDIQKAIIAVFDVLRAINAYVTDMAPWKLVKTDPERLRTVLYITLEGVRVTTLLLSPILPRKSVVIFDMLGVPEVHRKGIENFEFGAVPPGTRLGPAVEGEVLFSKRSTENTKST

[16] = Counterscreen for inhibitors of Trypanosoma brucei methionyl tRNA synthetase (MetRS): Luminescence-based cell-based high throughput dose response assay to identify compounds that are cytotoxic to Jurkat human T lymphocyte cells.; type: functional
[17] = biological target: T5, Methionyl-tRNA synthetase, putative; type: functional, Trypanosoma brucei brucei strain 927/4 GUTat10.1; remark: listed apart in the source
[18] = cytotoxicity in HeLa cells, dose response, cytotoxicity control, cell-based, plate reader, dry powder (AID 651946); type: functional
[19] = A Cell-Based Confirmatory Screen for Compounds that Inhibit VEEV, TC-83 (8).; type: functional
[20] = A Cell-Based Confirmatory Screen for Compounds that Inhibit VEEV, TC-83 (7).; type: functional
HEK293 = assay: inhibitors of LMP1-driven NF-kB reporter, dose response, cell-based, HEK293, luciferase, cherry-pick (AID 588343); type: functional; settings: Homo sapiens
cells [21] = type: functional, cell-based
[22] = biological target: T6, Nuclear receptor subfamily 0 group B member 1 (Homo sapiens, UniProt P51843); type: functional, cell-based;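 note: HEK293T cells transfected with SF-1 and DAX-1 plus StAR promoter luciferase reporter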
T6 sequence (P51843 whole entry): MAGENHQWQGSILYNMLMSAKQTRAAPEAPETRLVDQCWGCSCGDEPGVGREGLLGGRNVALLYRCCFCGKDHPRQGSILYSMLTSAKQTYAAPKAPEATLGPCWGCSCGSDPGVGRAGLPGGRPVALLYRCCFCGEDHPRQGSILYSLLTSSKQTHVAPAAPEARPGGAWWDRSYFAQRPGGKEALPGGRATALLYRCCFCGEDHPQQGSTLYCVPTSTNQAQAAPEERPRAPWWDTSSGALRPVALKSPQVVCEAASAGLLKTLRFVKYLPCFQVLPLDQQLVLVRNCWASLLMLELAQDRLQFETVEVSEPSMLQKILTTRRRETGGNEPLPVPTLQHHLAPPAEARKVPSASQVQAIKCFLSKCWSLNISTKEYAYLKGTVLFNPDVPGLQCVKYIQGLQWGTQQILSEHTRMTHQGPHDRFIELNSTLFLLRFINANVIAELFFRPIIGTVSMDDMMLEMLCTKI

HeLa = assay: HeLa cell cytotoxicity, dose response, cytotoxicity control, ATP luminescence, cherry-pick samples (AID 687004); type: functional, cell-based; settings: Homo sapiens
[23] = inhibitors of firefly luciferase expression or activity, dose response, H4 neuroglioma cells, luminescence (AID 1990); type: functional, cell-based
[24] = Luminescence Cell-Based Dose Response HTS to Identify Inhibitors of 5'UTR Stem-Loop Driven Prion Protein mRNA Translation in H4 Neuroglioblastoma Cells. [Related pubchem assays: 1827 (Project Summary), 1813 (Primary HTS)]; type: functional
[25] = inhibitors of SNCA 5'UTR-driven reporter translation, confirmation, H4 neuroglioma cells, luminescence (AID 1988); type: functional, cell-based
[26] = biological target: T7, Mannose-6-phosphate isomerase (Homo sapiens, UniProt P34949); assay: inhibitors of human PMI, primary screen, biochemical, fluorescence intensity, coupled assay (AID 1209)
T7 sequence (P34949 whole entry): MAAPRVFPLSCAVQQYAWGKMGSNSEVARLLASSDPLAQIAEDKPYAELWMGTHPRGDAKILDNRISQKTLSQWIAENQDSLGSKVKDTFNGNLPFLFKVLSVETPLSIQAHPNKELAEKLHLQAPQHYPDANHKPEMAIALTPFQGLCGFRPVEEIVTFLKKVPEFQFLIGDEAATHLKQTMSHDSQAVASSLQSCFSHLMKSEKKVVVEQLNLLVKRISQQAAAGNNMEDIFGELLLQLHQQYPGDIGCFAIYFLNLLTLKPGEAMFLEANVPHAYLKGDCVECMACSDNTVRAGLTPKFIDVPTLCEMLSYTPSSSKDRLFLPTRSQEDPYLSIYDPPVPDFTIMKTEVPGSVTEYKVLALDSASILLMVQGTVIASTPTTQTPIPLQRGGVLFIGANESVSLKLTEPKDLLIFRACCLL

Genome polyprotein = Genome polyprotein (dengue virus type 2, UniProt P29990); assay: Dengue-2 NS5 methyltransferase inhibitors, primary screen, biochemical, confirmation dose response (AID 588689); type: functional
[27] = HepG2 cell cytotoxicity, dose response, cytotoxicity control, dry powder samples (AID 720568); type: functional, cell-based
[28] = biological target: Endoplasmic reticulum aminopeptidase 1 (Homo sapiens, UniProt Q9NZ08); assay: ERAP1 aminopeptidase inhibitors, dose response, biochemical, cherry-pick, set 2, plate reader (AID 743314)
[29] = HeLa cell cytotoxicity, dose response, cytotoxicity control, CellTiter-Glo luminescence, dry powder, set 2 (AID 720593); type: functional, cell-based

Sequence of G-protein coupled receptor 55 (Q9Y2T6 whole entry): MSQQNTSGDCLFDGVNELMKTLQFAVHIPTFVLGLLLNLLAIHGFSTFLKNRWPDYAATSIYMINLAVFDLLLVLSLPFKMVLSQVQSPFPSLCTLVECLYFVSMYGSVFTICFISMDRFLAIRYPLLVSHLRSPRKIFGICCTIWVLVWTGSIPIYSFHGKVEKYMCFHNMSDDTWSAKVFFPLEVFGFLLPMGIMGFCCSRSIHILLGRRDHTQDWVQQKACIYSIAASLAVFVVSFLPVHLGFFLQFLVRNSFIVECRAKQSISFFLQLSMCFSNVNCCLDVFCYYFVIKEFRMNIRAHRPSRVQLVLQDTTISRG
Sequence of Endoplasmic reticulum aminopeptidase 1 (Q9NZ08 whole entry): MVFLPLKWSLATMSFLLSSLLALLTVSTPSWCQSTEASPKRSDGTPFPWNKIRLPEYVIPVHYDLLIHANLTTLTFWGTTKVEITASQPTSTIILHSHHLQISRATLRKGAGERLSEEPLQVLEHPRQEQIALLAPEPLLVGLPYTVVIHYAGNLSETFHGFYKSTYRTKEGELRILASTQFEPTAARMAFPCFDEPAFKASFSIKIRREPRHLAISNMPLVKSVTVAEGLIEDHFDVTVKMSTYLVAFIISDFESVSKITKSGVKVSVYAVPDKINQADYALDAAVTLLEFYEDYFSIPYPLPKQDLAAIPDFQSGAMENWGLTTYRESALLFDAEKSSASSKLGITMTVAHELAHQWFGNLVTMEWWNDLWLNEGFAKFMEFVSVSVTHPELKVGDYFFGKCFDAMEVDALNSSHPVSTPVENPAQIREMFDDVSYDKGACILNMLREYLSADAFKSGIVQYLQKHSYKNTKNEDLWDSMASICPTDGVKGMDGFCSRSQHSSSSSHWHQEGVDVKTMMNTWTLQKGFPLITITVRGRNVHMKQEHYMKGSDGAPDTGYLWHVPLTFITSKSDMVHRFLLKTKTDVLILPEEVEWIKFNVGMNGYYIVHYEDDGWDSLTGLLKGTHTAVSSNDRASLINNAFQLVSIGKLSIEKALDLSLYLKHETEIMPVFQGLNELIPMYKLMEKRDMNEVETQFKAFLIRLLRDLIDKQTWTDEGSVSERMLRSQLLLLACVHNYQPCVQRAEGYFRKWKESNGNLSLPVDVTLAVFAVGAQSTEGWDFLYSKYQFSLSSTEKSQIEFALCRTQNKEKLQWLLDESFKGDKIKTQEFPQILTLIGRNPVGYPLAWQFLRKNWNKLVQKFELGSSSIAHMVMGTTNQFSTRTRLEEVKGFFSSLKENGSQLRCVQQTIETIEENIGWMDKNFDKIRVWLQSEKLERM
Sequence of Genome polyprotein (P29990 2492-3391 limits assumed): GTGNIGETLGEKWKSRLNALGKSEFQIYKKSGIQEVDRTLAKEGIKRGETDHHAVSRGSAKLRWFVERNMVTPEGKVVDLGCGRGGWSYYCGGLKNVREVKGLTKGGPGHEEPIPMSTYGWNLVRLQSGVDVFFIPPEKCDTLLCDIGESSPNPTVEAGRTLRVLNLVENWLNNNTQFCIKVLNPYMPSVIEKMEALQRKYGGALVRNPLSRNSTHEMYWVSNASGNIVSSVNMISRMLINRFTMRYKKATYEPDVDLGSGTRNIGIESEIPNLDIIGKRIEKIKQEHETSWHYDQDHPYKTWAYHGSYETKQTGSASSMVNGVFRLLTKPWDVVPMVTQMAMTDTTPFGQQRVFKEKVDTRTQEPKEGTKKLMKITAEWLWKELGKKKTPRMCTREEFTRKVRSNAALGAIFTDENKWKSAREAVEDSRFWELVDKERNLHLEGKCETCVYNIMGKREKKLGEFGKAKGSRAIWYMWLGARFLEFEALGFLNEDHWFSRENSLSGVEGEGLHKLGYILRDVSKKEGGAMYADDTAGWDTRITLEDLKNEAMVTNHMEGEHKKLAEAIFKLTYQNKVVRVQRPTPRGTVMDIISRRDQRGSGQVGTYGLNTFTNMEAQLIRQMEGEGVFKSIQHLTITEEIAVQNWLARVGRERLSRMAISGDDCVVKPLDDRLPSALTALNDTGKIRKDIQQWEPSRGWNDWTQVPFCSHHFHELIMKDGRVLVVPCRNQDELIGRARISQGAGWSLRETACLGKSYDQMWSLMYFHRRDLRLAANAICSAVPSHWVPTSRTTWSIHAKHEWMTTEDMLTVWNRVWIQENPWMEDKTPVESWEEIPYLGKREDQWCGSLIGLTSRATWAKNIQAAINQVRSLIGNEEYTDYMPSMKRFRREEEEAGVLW

COc1ccc(C#Cc2cccc(-c3nc(C(=O)NCc4ccc5c(c4)OCO5)cc4c3[C@H](CCO)N([S+]([O-])C(C)(C)C)C4)c2)cc1OC (some centres not stated)
AC50 [1]: 844 nM (active)

CCCCOc1ccc(CC(=O)N(C)O)cc1
IC50 [2]: 15 µM (inactive)

COc1cc2c(cc1OC)C(c1ccc(-c3ccc(Cl)c(Cl)c3)o1)=NCC2
EC50 [3]: > 300 µM (inconclusive) | EC50 [4]: > 300 µM (not active) | EC50 [5]: > 195 µM (not active) | EC50 [6]: > 32 µM (inactive) | AC50 [7]: 4.34 µM (active) | AC50 [8]: 25.7 µM (active) | AC50 [9]: 8.91 µM (active) | AC50 [10]: 9.82 µM (active) | IC50 [11]: 35.8 µM (inactive)

N#CC1=C(N)Oc2cc(N)ccc2C1c1ccc(F)cc1F (configuration not stated)
AC50 [12]: 45.3 µM (active) | AC50 (cells [13]): 31.8 µM (active) | AC50 (cells [14]): > 52 µM (inactive)

COC(=O)c1sc(-c2ccc(Cl)cc2)cc1NC(=O)COCC(=O)O
IC50 [15]: 18.7 µM (inactive) | IC50 [16]: 83.2 µM (inactive) | IC50 [17]: 13.8 µM (inactive)

COCCOCCSc1nnc(-c2ccccc2)o1
AC50 [18]: > 52 µM (inactive)

COc1ccc(NC(=O)c2cc([N+](=O)[O-])ccc2/N=C2\CN(C)CCN2C)cc1
IC50 [19]: 37 nM (active) | IC50 [20]: 40 nM (active)

C(=Cc1nc2ccccc2o1)c1ccc2c(c1)OCO2
AC50 (HEK293): 2.91 µM (active) | IC50 (cells [21]): > 67.6 µM (inactive) | IC50 [22]: > 92.7 nM (active)

C(=Nn1cnnc1)c1ccc2c(c1)CCC2
AC50 (HeLa): 28.2 µM (active)

O=C1CCNc2cc3ccccc3cc21
EC50 [23]: > 60 µM (not active) | EC50 [24]: > 120 µM (not active) | EC50 [25]: 5.91 µM (active) | IC50 [26]: 23.2 µM (active) | IC50 (Genome polyprotein): > 100 µM (active) | AC50 [27]: 5.57 µM (active)

CCCN1[C@@H]2Cn3c(ccc(/C=C/c4ccccc4)c3=O)[C@H]1[C@@H](C(=O)NCc1ccccn1)[C@@H]2CO
AC50 [28]: 8.95 µM (active)

O=C(Nc1nc(-c2ccccn2)cs1)c1ccc(S(=O)(=O)N2CCOCC2)cc1
AC50 [29]: 41.1 µM (active)
